According to patent publication US5656308A, “Non-reducing oligosaccharide with neotrehalose structure, and its production and uses” (Kabushiki Kaisha Hayashibara Seibutsu Kagaku Kenkyujo, priority 1993, dated 1997):

Test system: mice
Test: Acute toxicity in mice upon oral administration
Format: in vivo
Protocol: High-purity β-maltosyl α-glucoside, α-maltosyl β-glucoside, β-maltotriosyl α-glucoside, α-maltotriosyl β-glucoside and β-maltosyl α-maltoside prepared by the method in Experiment 2 were tested for acute toxicity in mice upon oral administration.

| SMILES | acute toxicity (in words) | death with maximum administrable dose |
| --- | --- | --- |
| OC[C@H]1O[C@@H](O[C@H]2O[C@H](CO)[C@@H](O[C@H]3O[C@H](CO)[C@@H](O[C@H]4O[C@H](CO)[C@@H](O)[C@H](O)[C@H]4O)[C@H](O)[C@H]3O)[C@H](O)[C@H]2O)[C@H](O)[C@@H](O)[C@@H]1O [α-maltotriosyl β-glucoside, O-α-D-gluco- pyranosyl-(1→4)-O-α-D-glucopyranosyl-(1→4)-α-D-glucopyranosyl β-D-glucopyranoside] | less toxic | no death was observed |
| OC[C@H]1O[C@H](O[C@@H]2O[C@H](CO)[C@@H](O[C@H]3O[C@H](CO)[C@@H](O)[C@H](O)[C@H]3O)[C@H](O)[C@H]2O)[C@H](O)[C@@H](O)[C@@H]1O [β-maltosyl α-glucoside, O-α-D-glucopyranosyl-(1→4)-β-D-glucopyranosyl α-D-glucopyranoside] | less toxic | no death was observed |
| OC[C@H]1O[C@H](O[C@@H]2O[C@H](CO)[C@@H](O[C@H]3O[C@H](CO)[C@@H](O[C@H]4O[C@H](CO)[C@@H](O)[C@H](O)[C@H]4O)[C@H](O)[C@H]3O)[C@H](O)[C@H]2O)[C@H](O)[C@@H](O)[C@@H]1O [β-maltotriosyl α-glucoside, O-α-D-glucopyranosyl-(1→4)-O-α-D-glucopyranosyl-(1→4)-β-D-glucopyranosyl α-D-glucopyranoside] | less toxic | no death was observed |
| OC[C@H]1O[C@@H](O[C@H]2O[C@H](CO)[C@@H](O[C@H]3O[C@H](CO)[C@@H](O)[C@H](O)[C@H]3O)[C@H](O)[C@H]2O)[C@H](O)[C@@H](O)[C@@H]1O [α-maltosyl β-glucoside, O-α-D-glucopyranosyl-(1→4)-α-D-glucopyranosyl β-D-glucopyranoside] | less toxic | no death was observed |
| OC[C@H]1O[C@H](O[C@H]2[C@H](O)[C@@H](O)[C@H](O[C@H]3O[C@H](CO)[C@@H](O[C@H]4O[C@H](CO)[C@@H](O)[C@H](O)[C@H]4O)[C@H](O)[C@H]3O)O[C@@H]2CO)[C@H](O)[C@@H](O)[C@@H]1O [β-maltosyl α-maltoside, O-α-D-glucopyranosyl-(1→4)-β-D-glucopyranosyl α-D-maltoside] | less toxic | no death was observed |
